Reference: PubChem BioAssay AID328 (DTP/NCI, 2004)
Where “and” joins values, the source holds several entries; their conditions need not be identical. Equal entries are not always repeated. Inconclusive results and toxic doses are left out. How the source made its calls: active means survival T/C of 150% or more; inactive means T/C below 125% in these data.

Tested on: BDF1 mice, P388 leukemia ip, median survival T/C
Assay: NCI In Vivo Anticancer Drug Screen. Data for tumor model P388 Leukemia (intraperitoneal) in B6D2F1 (BDF1) mice
Conditions: endpoint: median survival time, higher = longer survival
In short: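 Mice carrying the transplantable tumour receive compound or vehicle. Survival is followed in each arm, and the treated measure is divided by the vehicle measure.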

[1] = dose: 100.0 mg/kg/injection, schedule: Q01DX009 (ip), vehicle: saline with Tween-80
[2] = dose: 200.0 mg/kg/injection, schedule: Q01DX009 (ip), vehicle: saline with Tween-80
[3] = dose: 50.0 mg/kg/injection, schedule: Q01DX009 (ip), vehicle: saline with Tween-80
[4] = dose: 25.0 mg/kg/injection, schedule: Q01DX009 (ip), vehicle: saline with Tween-80
[5] = dose: 100.0 mg/kg/injection, schedule: Q01DX001 (ip), vehicle: Klucel (hydroxypropylcellulose) (HPC)
[6] = dose: 200.0 mg/kg/injection, schedule: Q01DX001 (ip), vehicle: Klucel (hydroxypropylcellulose) (HPC)
[7] = dose: 400.0 mg/kg/injection, schedule: Q01DX001 (ip), vehicle: Klucel (hydroxypropylcellulose) (HPC)

Measured: T/C

CC(C)(C)C1=CC(C(C)(C)C)CCC1=O (stereo not given)
inactive: dose: 50.0 mg/kg/injection, schedule: Q01DX009 (ip), vehicle: saline 86 % of control | dose: 75.0 mg/kg/injection, schedule: Q04DX003 (ip), vehicle: saline 110 % of control | dose: 100.0 mg/kg/injection, schedule: Q01DX009 (ip), vehicle: saline 109 % of control | dose: 150.0 mg/kg/injection, schedule: Q04DX003 (ip), vehicle: saline 110 % of control | dose: 200.0 mg/kg/injection, schedule: Q01DX009 (ip), vehicle: saline 118 % of control | dose: 300.0 mg/kg/injection, schedule: Q04DX003 (ip), vehicle: saline 120 % of control

NC(Cc1cccs1)C(=O)O (stereo not given)
inactive: [1] 100 % of control | [2] 110 % of control | dose: 400.0 mg/kg/injection, schedule: Q01DX009 (ip), vehicle: saline with Tween-80 110 % of control

CCCCNC1(C#N)CCN(Cc2ccccc2)CC1
inactive: dose: 6.0 mg/kg/injection, schedule: Q04DX003 (ip), vehicle: Klucel (hydroxypropylcellulose) (HPC) 104 % of control | dose: 12.0 mg/kg/injection, schedule: Q04DX003 (ip), vehicle: Klucel (hydroxypropylcellulose) (HPC) 100 % of control | dose: 12.5 mg/kg/injection, schedule: Q01DX009 (ip), vehicle: Klucel (hydroxypropylcellulose) (HPC) 100 % of control | dose: 25.0 mg/kg/injection, schedule: Q01DX009 (ip), vehicle: Klucel (hydroxypropylcellulose) (HPC) 91 % of control | dose: 25.0 mg/kg/injection, schedule: Q04DX003 (ip), vehicle: Klucel (hydroxypropylcellulose) (HPC) 96 % of control and 112 % of control

CC(=O)c1ccc(NC(=O)N(CCCl)N=O)cc1
inactive: dose: 0.29 mg/kg/injection, schedule: Q04DX003 (ip), vehicle: Klucel (hydroxypropylcellulose) (HPC) 118 % of control | dose: 0.43 mg/kg/injection, schedule: Q04DX003 (ip), vehicle: Klucel (hydroxypropylcellulose) (HPC) 113 % of control | dose: 56.25 mg/kg/injection, schedule: Q04DX003 (ip), vehicle: Klucel (hydroxypropylcellulose) (HPC) 109 % of control | dose: 75.0 mg/kg/injection, schedule: Q04DX003 (ip), vehicle: Klucel (hydroxypropylcellulose) (HPC) 122 % of control
active: dose: 0.99 mg/kg/injection, schedule: Q04DX003 (ip), vehicle: saline 150 % of control | dose: 18.75 mg/kg/injection, schedule: Q04DX003 (ip), vehicle: Klucel (hydroxypropylcellulose) (HPC) 218 % of control | dose: 24.75 mg/kg/injection, schedule: Q04DX003 (ip), vehicle: Klucel (hydroxypropylcellulose) (HPC) 204 % of control
236 % of control and 90 % of control: dose: 37.5 mg/kg/injection, schedule: Q04DX003 (ip), vehicle: Klucel (hydroxypropylcellulose) (HPC)

O=C(Nc1ccc2ccccc2c1)c1ccccc1
inactive: dose: 100.0 mg/kg/injection, schedule: Q01DX001 (ip), vehicle: saline sonified 95 % of control | dose: 200.0 mg/kg/injection, schedule: Q01DX001 (ip), vehicle: saline sonified 100 % of control | dose: 400.0 mg/kg/injection, schedule: Q01DX001 (ip), vehicle: saline sonified 100 % of control

CS(=O)(=O)CC(O)(c1ccccc1)c1ccncc1 (stereo not given)
inactive: [3] 96 % of control | [1] 90 % of control | [2] 98 % of control

O=[N+]([O-])c1cc(C(F)(F)F)cc([N+](=O)[O-])c1N1CCCC(n2cccc2)C1 (stereo not given)
inactive: [3] 107 % of control | [1] 109 % of control | [2] 118 % of control

CC[n+]1cc(-c2ccc(NC(=O)/C=C\c3ccc(C(=O)Nc4ccc(-c5c[n+](CC)c(N)nc5N)cc4)cc3)cc2)c(N)nc1N
active: dose: 33.0 mg/kg/injection, schedule: Q04DX003 (ip), vehicle: saline with Tween-80 195 % of control | dose: 50.0 mg/kg/injection, schedule: Q04DX003 (ip), vehicle: saline with Tween-80 272 % of control | dose: 75.0 mg/kg/injection, schedule: Q04DX003 (ip), vehicle: saline with Tween-80 272 % of control

CCCC(C)(C)SSC(C)(C)CCC
inactive: [4] 90 % of control | [3] 90 % of control and 100 % of control | [1] 95 % of control and 118 % of control | dose: 100.0 mg/kg/injection, schedule: Q04DX003 (ip), vehicle: saline with Tween-80 90 % of control | dose: 200.0 mg/kg/injection, schedule: Q04DX003 (ip), vehicle: saline with Tween-80 113 % of control

CC1NC(=O)C2Cc3ccc(O)c(c3)Oc3ccc(cc3)C(O)C(C(=O)N2C)N(C)C(=O)C(C)NC(=O)C(Cc2ccc(O)cc2)N(C)C(=O)C(C)NC1=O (stereo not given)
inactive: dose: 1.0 mg/kg/injection, schedule: Q01DX009 (ip), vehicle: saline with Tween-80 98 % of control | dose: 2.0 mg/kg/injection, schedule: Q01DX009 (ip), vehicle: saline with Tween-80 94 % of control | dose: 4.0 mg/kg/injection, schedule: Q01DX009 (ip), vehicle: saline with Tween-80 107 % of control | dose: 8.0 mg/kg/injection, schedule: Q01DX009 (ip), vehicle: saline with Tween-80 110 % of control | dose: 16.0 mg/kg/injection, schedule: Q01DX009 (ip), vehicle: saline with Tween-80 101 % of control

CCOC(=O)C1CC1C(=O)O (stereo not given)
inactive: dose: 100.0 mg/kg/injection, schedule: Q04DX003 (ip), vehicle: saline 103 % of control | dose: 200.0 mg/kg/injection, schedule: Q04DX003 (ip), vehicle: saline 114 % of control

O=C1CSC(=S)N1
inactive: [3] 122 % of control | [1] 122 % of control | [2] 104 % of control

O=C(c1ccccc1)C1(Br)CCCCC1
inactive: dose: 75.0 mg/kg/injection, schedule: Q01DX009 (ip), vehicle: Klucel (hydroxypropylcellulose) (HPC) 104 % of control | [5] 100 % of control | dose: 100.0 mg/kg/injection, schedule: Q04DX003 (ip), vehicle: Klucel (hydroxypropylcellulose) (HPC) 109 % of control | dose: 150.0 mg/kg/injection, schedule: Q01DX009 (ip), vehicle: Klucel (hydroxypropylcellulose) (HPC) 95 % of control | [6] 104 % of control | dose: 200.0 mg/kg/injection, schedule: Q04DX003 (ip), vehicle: Klucel (hydroxypropylcellulose) (HPC) 104 % of control | dose: 300.0 mg/kg/injection, schedule: Q01DX009 (ip), vehicle: Klucel (hydroxypropylcellulose) (HPC) 86 % of control | [7] 104 % of control | dose: 400.0 mg/kg/injection, schedule: Q04DX003 (ip), vehicle: Klucel (hydroxypropylcellulose) (HPC) 109 % of control

CCOC(=O)c1[nH]cnc1/N=N/N(C)C
inactive: dose: 60.0 mg/kg/injection, schedule: Q01DX009 (ip), vehicle: saline with Tween-80 87 % of control
active: dose: 26.4 mg/kg/injection, schedule: Q01DX009 (ip), vehicle: saline with Tween-80 175 % of control

CC1(C)CC2(C)OC2C2(C1)N=NC(=O)O2 (stereo not given)
inactive: [3] 98 % of control | [1] 107 % of control | [2] 121 % of control

CNC(=S)N/N=C(\C)c1snc(C)c1Br
inactive: [4] 94 % of control | [3] 103 % of control | [1] 96 % of control

NNC(=O)c1cccc(N)c1
inactive: [4] 100 % of control | [3] 90 % of control | [1] 100 % of control

Cc1ccc2oc(=O)c(-c3cc4oc(=O)sc4cc3O)c(O)c2c1
inactive: [5] 100 % of control | [6] 100 % of control | [7] 106 % of control

CC(OC(=O)Nc1cccc(Cl)c1)C(=O)O (stereo not given)
inactive: dose: 100.0 mg/kg/injection, schedule: Q01DX009 (ip), vehicle: gum acacia 107 % of control | dose: 200.0 mg/kg/injection, schedule: Q01DX009 (ip), vehicle: gum acacia 96 % of control | dose: 400.0 mg/kg/injection, schedule: Q01DX009 (ip), vehicle: gum acacia 100 % of control
